# Reference: publication PMC12263571, “Antiviral effects of mogroside V against porcine reproductive and respiratory syndrome virus in vitro” (Frontiers in Microbiology, 2025)
# Read-outs that look alike come from different tables or passages of the source.
# Tests used:
# Marc-145 cells = assay: CCK-8 cytotoxicity assay in Marc-145 cells; type: cell-based
# Description: (§1) The cytotoxicity of MV was assessed using the Cell Counting Kit-8 (CCK-8) assay to determine cell viability. Porcine alveolar macrophages (PAMs) and Marc-145 cells were seeded in 96-well plates and treated with varying concentrations of MV (0, 100, 200, 400 or 800 μM) for 24, 48, 72, and 96 h. Following the manufacturer's protocol, CCK-8 reagent was added to each well, and cells were incubated for 2 h at 37°C under 5% CO2. Absorbance was measured at 450 nm using a microplate reader. Cell viability (%) was calculated using the formula:Cell viability (%) = [OD (sample) – OD (blank)/OD (control) – OD (blank)] × 100%, where OD (blank) represents the background absorbance of cell-free medium, and OD (control) denotes untreated cells.
# (§2) The half-maximal inhibitory concentration (IC50) value for MV-mediated cytotoxicity was calculated through nonlinear regression fitting of dose-response curves.
# [1] = system: Porcine alveolar macrophages (PAMs); assay: CCK-8 cytotoxicity assay in PAM cells; type: cell-based
# Description: as §1, §2
# HP-PRRSV-GFP = assay: Antiviral assay (TCID50, RT-qPCR, IFA) against HP-PRRSV-GFP strain in Marc-145 and PAM cells; type: cell-based, porcine reproductive and respiratory syndrome virus
# Description: (§3) To investigate the stage-specific antiviral effects of mogroside V (MV) and evaluate its ability to inhibit PRRSV replication in Marc-145 and PAM cells, three distinct treatment groups were established for in vitro evaluation: pre-treatment group, post-treatment group, and co-treatment group. Viral replication was assessed through multiple approaches: quantification of viral mRNA copies by RT-qPCR, determination of viral titers using the TCID50 method, and analysis of PRRSV N protein expression via immunofluorescence assay (IFA). The experimental design was as follows:
# (§4) Pre-treatment group: to investigate the preventive effect of MV prior to PRRSV infection, Marc-145 or PAM cells were pretreated with MV before viral challenge. Cells in good growth condition were seeded in 6-well plates and cultured until monolayer formation. After removing the old medium, cells were washed twice with PBS, followed by incubation with varying concentrations of MV for 24 h. The drug was then removed, and cells were washed twice with PBS before infection with PRRSV (100 TCID50) for 48 h. Subsequently, viral mRNA copies, viral titers, and PRRSV N protein fluorescence expression were measured to calculate viral inhibition rates.
# (§5) Post-treatment group: In order to investigate the effect of MV on PRRSV infection, MV was added after Marc-145 or PAM cells were infected with PRRSV. The cells with good growth status were inoculated in the 6-well cell culture plate. After the cells grew to monolayer, the old medium was discarded and the cells were cleaned twice with PBS. PRRSV (100 TCID50) was inoculated and incubated for 1 h, during which the virus could be shaken repeatedly to fully interact with cells. The virus venom was removed, washed twice with PBS, and incubated with different concentrations of MV for 48 h. After that, the viral mRNA copies and viral titer were detected, the viral inhibition rate was calculated, and the fluorescence expression of PRRSV N protein was observed.
# (§6) Co-treatment group: In order to study the direct effect of MV on PRRSV, PRRSV and MV were simultaneously inoculated in Marc-145 or PAM cells for treatment. The cells with good growth status were inoculated in the 6-well cell culture plate. After the cells grew to monolayer, the old medium was discarded and the cells were cleaned twice with PBS. MV at different concentrations was mixed with PRRSV (100 TCID50) and inoculated into Marc-145 and PAM cells for 48 h. After that, the viral mRNA copies and viral titer were detected, viral inhibition rate was calculated, and the fluorescence expression of PRRSV N protein was observed.
# (§7) Real-time quantitative PCR (RT-qPCR) was performed to determine PRRSV gene expression levels. Viral RNA was extracted from cell culture supernatants using a commercial viral DNA/RNA extraction kit according to the manufacturer's protocol, with subsequent storage at −80°C until further analysis. RT-qPCR amplification were conducted using TransScript Green One-Step qRT-PCR SuperMix kit.
# (§8) The supernatant from 6-well culture plates was collected into 1.5 mL microcentrifuge tubes and stored at −80°C for subsequent analysis. Cells were washed twice with PBS and fixed with ice-cold methanol for 15 min at room temperature. Non-specific binding sites were blocked with 1% BSA containing 0.05% Tween 20 for 30 min at ambient temperature. Cells were then incubated with anti-PRRSV N protein monoclonal antibody either for 2 h at 37°C or overnight at 4°C. Following primary antibody incubation, cells were treated with fluorophore-conjugated secondary antibody (goat anti-mouse IgG, Alexa Fluor 488) for 1 h at 37°C. Nuclei were counterstained with DAPI for 10 min at room temperature protected from light. Fluorescence microscopy was performed to examine the subcellular distribution and expression levels of PRRSV N protein. Stained cell monolayers were visualized under 4 × , 10 × , and 20 × objective lenses using an epifluorescence microscope. […]
# NADC30 strain = assay: Antiviral assay (TCID50, RT-qPCR, IFA) against NADC30 strain in Marc-145 and PAM cells; type: cell-based, porcine reproductive and respiratory syndrome virus; settings: for viral titers: co-treatment; for PRRSV N protein expression (IFA): PAMs, pre-treatment
# Description: as §3, §4, §5, §6, §7, §8
# PRRSV = assay: Antiviral assay against PRRSV, both strains (HP-PRRSV-GFP and NADC30) taken together; type: cell-based, porcine reproductive and respiratory syndrome virus
# Description: as §3, §4, §5, §6, §7, §8
# [2] = system: immunomodulatory cytokines gene expression in PAMs; assay: RT-qPCR of immunoregulatory factor gene expression in PAMs; type: cell-based, porcine
# [3] = Marc-145 and PAM cells, 400 μM MV
# [4] = Marc-145 and PAM cells, MV ≤ 200 μM
# [5] = pre-treatment, 400 μM MV, both cell types, vs untreated controls, P < 0.01
structure (smiles),measurement,setting,value
"C[C@H](CC[C@@H](O[C@@H]1O[C@H](CO[C@@H]2O[C@H](CO)[C@@H](O)[C@H](O)[C@H]2O)[C@@H](O)[C@H](O)[C@H]1O[C@@H]1O[C@H](CO)[C@@H](O)[C@H](O)[C@H]1O)C(C)(C)O)[C@H]1CC[C@@]2(C)[C@@H]3CC=C4[C@@H](CC[C@H](O[C@@H]5O[C@H](CO[C@@H]6O[C@H](CO)[C@@H](O)[C@H](O)[C@H]6O)[C@@H](O)[C@H](O)[C@H]5O)C4(C)C)[C@]3(C)[C@H](O)C[C@]12C [MV, Mogroside V]",cell viability,"Marc-145 cells; Marc-145 cells, 400 μM MV",exceeded 75%
same,IC50,"Marc-145 cells; Marc-145 cells, 24 h",686 µM
same,IC50,"Marc-145 cells; Marc-145 cells, 48 h",756 µM
same,IC50,"Marc-145 cells; Marc-145 cells, 72 h",756 µM
same,IC50,"Marc-145 cells; Marc-145 cells, 96 h",760 µM
same,maximum safe drug concentration,Marc-145 cells; PAM and Marc-145 cells,400 µM
same,cell viability,"[1]; PAM cells, 400 μM MV",exceeded 75%
same,IC50,"[1]; PAM cells, 24 h, read-out: IC50 (cytotoxicity)",577 µM
same,IC50,"[1]; PAM cells, 48 h, read-out: IC50 (cytotoxicity)",599 µM
same,IC50,"[1]; PAM cells, 72 h, read-out: IC50 (cytotoxicity)",704 µM
same,IC50,"[1]; PAM cells, 96 h, read-out: IC50 (cytotoxicity)",582 µM
same,IC50,"[1]; all IC50 values, Marc-145 and PAM cells, 24-96 h, read-out: IC50 values, all",≥ 577 µM
same,"increase in mRNA inhibition, 400 μM vs 200 μM",HP-PRRSV-GFP; Marc-145 and PAM cells,53 percentage-point
same,"increase in viral titer inhibition, 400 μM vs 200 μM",HP-PRRSV-GFP; Marc-145 and PAM cells,52 percentage-point
same,average mRNA inhibition rate,HP-PRRSV-GFP; [3],exceeding 95%
same,average viral titer inhibition rate,HP-PRRSV-GFP; [3],exceeding 95%
same,average mRNA inhibition rate,HP-PRRSV-GFP; [4],below 42%
same,average viral titer inhibition rate,HP-PRRSV-GFP; [4],below 43%
same,viral titers,"HP-PRRSV-GFP; Marc-145 cells, co-treatment, 400 μM MV",below the detection threshold
same,viral titers,"HP-PRRSV-GFP; PAM cells, co-treatment, 400 μM MV",below the detection threshold
same,viral mRNA copies,"HP-PRRSV-GFP; PAMs, pre-treatment, 200 μM MV, P < 0.05",significantly suppressed
same,viral titers,"HP-PRRSV-GFP; PAMs, pre-treatment, 200 μM MV, P > 0.05",no significant reduction
same,"enhancement in mRNA inhibition, 400 μM vs 200 μM",NADC30 strain; Marc-145 and PAM cells,49 percentage-point
same,"improvement in viral titer inhibition, 400 μM vs 200 μM",NADC30 strain; Marc-145 and PAM cells,43 percentage-point
same,average mRNA inhibition rate,NADC30 strain; [3],> 94%
same,average viral titer inhibition rate,NADC30 strain; [3],> 98%
same,average mRNA inhibition rate,NADC30 strain; [4],below 45%
same,average viral titer inhibition rate,NADC30 strain; [4],below 55%
same,viral titers,"NADC30 strain; Marc-145 cells, 400 μM MV",below the detection threshold
same,viral titers,"NADC30 strain; PAM cells, 400 μM MV (CPE in only two replicate wells)",approached the lower detection limit
same,PRRSV N protein expression (IFA),"NADC30 strain; 400 μM MV, P < 0.01",significantly reduced
same,PRRSV N protein expression (IFA),NADC30 strain; 100 and 200 μM MV,no statistically significant effects
same,inhibition rate for viral titers,"PRRSV; 200 μM MV, Marc-145 and PAM cells, mean values across all treatment groups",43%
same,maximal inhibition of viral titers,PRRSV; 400 μM MV,up to 100%
same,"greater suppression of viral mRNA, high- vs low-concentration group",PRRSV; 400 μM vs 200 μM MV,51%
same,viral fluorescence intensity (IFA),"PRRSV; Marc-145 cells, pre-treatment, 400 μM MV, P < 0.01",markedly diminished
same,PRRSV N protein expression (IFA),"PRRSV; Marc-145 or PAM cells, 400 μM MV, post-infection and co-treatment regimens",no detectable PRRSV N protein expression
same,viral replication in cells,"PRRSV; co-treatment, 400 μM MV, P < 0.01",markedly suppressed
same,viral titers,"PRRSV; post-treatment (1 h post-infection), 400 μM MV, Marc-145 and PAM cells",undetectable levels
same,viral mRNA copies,"PRRSV; post-treatment (1 h post-infection), 400 μM MV, Marc-145 and PAM cells, P < 0.01",significantly reduced
same,PRRSV mRNA levels,PRRSV; [5],significantly reduced
same,viral titers,PRRSV; [5],significantly reduced
same,"pro-inflammatory cytokine storm, such as excessive TNF-α secretion",[2],no evidence of a pro-inflammatory cytokine storm
same,IL-1 gene expression,[2]; RT-qPCR,significantly upregulates
same,IL-1β gene expression,[2]; RT-qPCR,significantly upregulates
same,IL-2 gene expression,[2]; RT-qPCR,significantly upregulates
same,IL-8 gene expression,[2]; RT-qPCR,significantly upregulates
same,IL-18 gene expression,[2]; RT-qPCR,significantly upregulates
